The values below come from patent publication US20170348375A1, “DISLODGEMENT AND RELEASE OF HSC FROM THE BONE MARROW STEM CELL NICHE USING ALPHA9 INTEGRIN ANTAGONISTS” (COMMONWEALTH SCIENTIFIC AND INDUSTRIAL RESEARCH ORGANISATION, priority 2014, published 2017).

This assay has as its system central and endosteal BM LSK and LSKSLAM cells. Briefly: In vitro R-BC154 binding to murine bone marrow cells. It is filed as cell-based, mouse. How it is done:
For lineage analysis, cells were stained separately for T-cells using anti-CD3, B-cells using anti-B220, macrophages using anti-Mac-1 and granulocytes using anti-Gr-1. Alternatively, lineage analysis was also performed using a cocktail containing anti-CD3/B220 (PB conjugated) and anti-B220/Gr1/Mac-1 (AF647 conjugated), whereby B220^+ cells were identified as +/+ cells, CD^3+ cells are +/− and Gr1/Mac-1^+ cells are −/+ populations. For analysis of human WBC from cord blood MNCs or BM and PB from humanised NSG mice, cells were immunolabelled with a lineage cocktail containing anti-huCD3/CD14/CD15 (all AF488 conjugated), anti-CD14/CD15/CD19/CD20 (all AF647 conjugated), anti-huCD45-PB, anti-muCD45-BV510 and anti-huCD34-PECy7. A full list of conjugated antibodies used is detailed in Table 1 and 2.
Populations of endosteal and central murine bone marrow cells were isolated as previously described in J. Grassinger, et al Cytokine, 2012, 58, 218-225 and D. N. Haylock et al Stem Cells, 2007, 25, 1062-1069. Briefly, one femur, tibia and iliac bone were excised and cleaned of muscle. After removing the epi- and metaphyseal regions, bones were flushed with PBS-2% FBS to obtain central bone marrow cells. Flushed long bones and epi- and metaphyseal fragments were pooled and crushed using a mortar and pestle. Bone fragments were digested with Collagenase I (3 mg/ml) and Dispase II (4 mg/ml) at 37° C. in an orbital shaker at 750 rpm. After 5 min, bone fragments were washed once with PBS and once with PBS 2% FBS to collect the endosteal bone marrow cells. Peripheral blood was collected by retro-orbital puncture and red blood cells were lysed using NH4Cl lysis buffer for 5 min at room temperature. Isolated cell populations were washed with PBS 2% FBS and then stained for flow cytometry as described in Antibody Cocktails above.
Cells were washed with cold PBS (2% F BS) and then immunolabelled as described in “Antibody Cocktails” prior to flow cytometric analysis.

As for `CCN(CC)c1ccc2c(-c3ccc(S(=O)(=O)NCc4cn(C5CC(C(=O)NC(Cc6ccc(OC(=O)N7CCCC7)cc6)C(=O)O)N(S(=O)(=O)c6ccccc6)C5)nn4)cc3S(=O)(=O)[O-])c3ccc(=[N+](CC)CC)cc-3oc2c1` (centres unmarked) [R-BC154], the “binding to central versus endosteal LSK and LSKSLAM” value (1 mM Ca2+/Mg2+) is “greater binding to central LSK and LSKSLAM”. Under “10 mM EDTA (deactivating)”, the “binding to HSC and progenitors on co-treatment with EDTA” value is recorded as “completely abolished activity”. The “binding to α4−/−/α9−/− LSK and LSKSLAM cells” value (BM cells of α4flox/flox α9flox/flox vav-cre mice) is reported as “essentially absent”. Also, the “binding to lineage committed lymphoid and myeloid progeny relative to LSKSLAM and LSK” value (exogenous activation, central and endosteal BM) is “significantly lower”. Besides, the “binding to LSK cells in the absence of activating cations and EDTA” value (no cations, no EDTA) is on record as “binding to endosteal LSK cells was still evident but not to central LSK”.
